Laboratory results from US8628683B2 (Innospec Limited, priority 2007, dated 2014).

Key:
[1] = solid form of the commercially available material; cited from earlier work
[2] = Increase in mass of solid samples stored at ambient temperatures over time; assay type: physicochemical; details: ambient storage
Source text: (§1) Samples of the materials were stored at ambient temperatures and the appearance of the samples and the mass thereof were noted over time.

[3] = Appearance of solid samples stored at ambient temperatures over time; assay type: physicochemical; details: ambient storage
Source text: as §1

- % increase in mass after 2 h ([2]; 2 h): 7.4%
- % increase in mass after 4 h ([2]; 4 h): 8.9%
- % increase in mass after 72 h ([2]; 72 h): 25%
- Appearance (2 h), printed in the column after 24 hr ([3]; 2 h): Sticky solid
- Appearance after 48 hr ([3]; 48 hr): Very stick
- Appearance after 72 hr ([3]; 72 hr): Very sticky
- Initial Appearance ([3]; initial): Free flowing
SMILES: O=C1CCC(=O)ON2CCN(O1)OC(=O)CCC(=O)O2.[Na].[Na].[Na] [Na3EDDS, trisodium ethylenediamine disuccinate]
- hygroscopicity of the solid form [1]: very hygroscopic
